Here are results for 19 molecules from US9399646B2 (Genentech, Inc., priority 2010, dated 2016).

Test [1] deals with MCF-7 cells. The experiment in a line: Breast cancer cell viability assay (CellTiter-Glo, 5 days). Type of test: cell-based. The note with it: 5 days' compound exposure; for IC50: Homo sapiens, MCF7, 120 h. Summed up:
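MCF-7 cells, 320 per well in RPMI with 10% FBS and 20 mM HEPES, adhered overnight, then exposed 5 days to an eleven-point semilog dilution (final 0.3-0.000003 μM). CellTiter-Glo luminescence read; % viability = (sample − cell-free background)/(untreated − background) × 100.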

The target of test [2] is T1, ER-α in MCF-7 cells (Homo sapiens, UniProt P03372).
T1 sequence (P03372 1-595): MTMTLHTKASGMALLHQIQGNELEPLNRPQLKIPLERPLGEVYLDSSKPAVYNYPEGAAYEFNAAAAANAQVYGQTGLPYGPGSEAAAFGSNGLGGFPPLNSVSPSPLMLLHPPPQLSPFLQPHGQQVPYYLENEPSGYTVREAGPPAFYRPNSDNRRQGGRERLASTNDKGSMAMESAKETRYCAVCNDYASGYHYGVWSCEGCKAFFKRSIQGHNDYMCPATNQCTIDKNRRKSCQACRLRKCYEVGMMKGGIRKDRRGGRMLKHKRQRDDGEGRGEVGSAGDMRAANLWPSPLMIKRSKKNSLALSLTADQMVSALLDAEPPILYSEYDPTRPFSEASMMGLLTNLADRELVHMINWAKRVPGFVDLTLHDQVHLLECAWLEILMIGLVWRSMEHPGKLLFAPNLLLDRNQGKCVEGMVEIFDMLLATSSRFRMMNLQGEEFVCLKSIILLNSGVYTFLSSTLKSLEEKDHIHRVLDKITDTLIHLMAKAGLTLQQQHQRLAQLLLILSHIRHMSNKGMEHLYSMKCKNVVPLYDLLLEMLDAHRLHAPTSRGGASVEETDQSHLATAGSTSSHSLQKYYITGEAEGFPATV
The experiment in a line: Breast cancer cell ER-α in cell western assay (SP1). It counts as cell-based. Also on record: endogenous in cells; host or cells: MCF-7. The note with it: 4 or 24 hr post compound addition; for Emax: MCF7, SP1 antibody, read-out: ER-α In Cell Western Assay (SP1) Max Response; for DC50: SP1 antibody, read-out: ER-α In Cell Western Assay (SP1) IC50. The method in brief: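 Fixed cells were immunostained with SP1 anti-ER antibody; ER signal (800 nm) was normalized to DRAQ5 DNA signal (700 nm) and expressed as % of untreated cells.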

The IC50 is the point on the concentration scale where inhibition reaches its midpoint. For the molecule `CC/C(=C(/c1ccc(-c2cc(O)on2)cc1)c1ccc2[nH]ncc2c1)c1ccc(F)cc1Cl` [Compound 334, (E)-3-(4-(2-(2-Chloro-4-fluorophenyl)-1-(1H-indazol-5-yl)but-1-en-1-yl)phenyl)isoxazol-5-ol], in test [1], the “MCF7 Viability Assay Max Response” value is listed as “+ (+ = a single % value < 40%)” and the IC50 is greater than 100 nM. In test [2], the Emax is no less than 40% and the DC50 is no more than 100 nM.

Take `CC/C(=C(/c1ccc(/C=C/C(=O)O)cc1)c1ccc2[nH]ncc2c1)c1cnc(C)s1` [Compound 229, (E)-3-(4-((E)-1-(1H-Indazol-5-yl)-2-(2-methylthiazol-5-yl)but-1-en-1-yl)phenyl)acrylic acid]: in test [1], the “MCF7 Viability Assay Max Response” value is listed as “++ (++ = a single % value ≧ 40%)” and the IC50 was greater than 100 nM. For the same molecule, in test [2], the Emax is no less than 40% and the DC50 is greater than 100 nM.

As to `CC/C(=C(/c1ccc(/C=C/C(=O)NC2CCCC2)cc1)c1ccc2[nH]ncc2c1)c1ccccc1` [Compound 431, (E)-3-(4-((E)-1-(1H-Indazol-5-yl)-2-phenylbut-1-en-1-yl)phenyl)-N-cyclopentylacrylamide], in test [1], the “MCF7 Viability Assay Max Response” value was “++ (++ = a single % value ≧ 40%)” and the IC50 is no more than 100 nM. For the same molecule, in test [2], the Emax was no less than 40% and the DC50 was no more than 100 nM.

Regarding `CC/C(=C(/c1ccc(/C=C/C(=O)O)cc1)c1ccc2scnc2c1)c1cscc1C` [Compound 276, (E)-3-(4-((E)-1-(Benzo[d]thiazol-5-yl)-2-(4-methylthiophen-3-yl)but-1-en-1-yl)phenyl)acrylic acid], in test [1], the “MCF7 Viability Assay Max Response” value is “++ (++ = a single % value ≧ 40%)” and the IC50 is no more than 100 nM. Moreover, in test [2], the Emax was no less than 40% and the DC50 was no more than 100 nM.

Regarding `CC/C(=C(/c1ccc(/C=C/C(=O)NS(=O)(=O)c2ccccc2)cc1)c1ccc2[nH]ncc2c1)c1ccc(F)cc1Cl` [Compound 428, (E)-3-(4-((E)-2-(2-Chloro-4-fluorophenyl)-1-(1H-indazol-5-yl)but-1-en-1-yl)phenyl)-N-(phenylsulfonyl)acrylamide], in test [1], the “MCF7 Viability Assay Max Response” value was “++ (++ = a single % value ≧ 40%)” and the IC50 was no more than 100 nM. In test [2], the Emax is no less than 40% and the DC50 is no more than 100 nM.

Consider `CC/C(=C(/c1ccc(/C=C/C(=O)O)nc1)c1ccc2[nH]ncc2c1)c1ccccc1` [Compound 189, (E)-3-(5-((Z)-1-(1H-Indazol-5-yl)-2-phenylbut-1-en-1-yl)pyridin-2-yl)acrylic acid], for which, in test [1], the “MCF7 Viability Assay Max Response” value was “++ (++ = a single % value ≧ 40%)” and the IC50 is greater than 100 nM. The Emax in test [2] was no less than 40%.

`CC/C(=C(/c1ccc(/C=C/C(=O)O)cc1)c1ccc2[nH]ncc2c1)c1ccc(C)c(Oc2ccccc2)c1` [Compound 318, (E)-3-(4-((E)-1-(1H-Indazol-5-yl)-2-(4-methyl-3-phenoxyphenyl)but-1-en-1-yl)phenyl)acrylic acid]: in test [1], the “MCF7 Viability Assay Max Response” value is “++ (++ = a single % value ≧ 40%)” and the IC50 is greater than 100 nM. In test [2], the Emax was no less than 40% and the DC50 is no more than 100 nM.

Turning to `CC/C(=C(/c1ccc(/C=C/C(=O)O)cc1)c1ccc2[nH]nc(F)c2c1)c1cscc1C` [Compound 312, (E)-3-(4-((E)-1-(3-Fluoro-1H-indazol-5-yl)-2-(4-methylthiophen-3-yl)but-1-en-1-yl)phenyl)acrylic acid], in test [1], the “MCF7 Viability Assay Max Response” value is “++ (++ = a single % value ≧ 40%)” and the IC50 is no more than 100 nM. In test [2], the Emax was no less than 40% and the DC50 is no more than 100 nM.

On to `CCCCCOc1cccc(/C(CC)=C(\c2ccc(/C=C/C(=O)O)cc2)c2ccc3[nH]ncc3c2)c1` [Compound 349, (E)-3-(4-((E)-1-(1H-Indazol-5-yl)-2-(3-(pentyloxy)phenyl)but-1-en-1-yl)phenyl)acrylic acid], for which, in test [1], the “MCF7 Viability Assay Max Response” value is recorded as “++ (++ = a single % value ≧ 40%)” and the concentration for half-maximal inhibition (IC50) was no more than 100 nM. In test [2], the Emax is no less than 40% and the DC50 is no more than 100 nM.

Turning to `CC/C(=C(/c1ccc(/C=C/C(=O)O)cc1)c1coc2c(OC)cccc12)c1ccc(F)cc1Cl` [Compound 164, (E)-3-(4-((E)-2-(2-Chloro-4-fluorophenyl)-1-(7-methoxybenzofuran-3-yl)but-1-en-1-yl)phenyl)acrylic acid], in test [1], the “MCF7 Viability Assay Max Response” value is recorded as “++ (++ = a single % value ≧ 40%)” and the IC50 is no more than 100 nM. In addition, in test [2], the Emax is no less than 40% and the DC50 was no more than 100 nM.

For the molecule `CC/C(=C(/c1ccc(/C=C/c2noc(=O)[nH]2)cc1)c1ccc2[nH]ncc2c1)c1ccc(F)cc1Cl` [Compound 437, 3-((E)-4-((E)-2-(2-Chloro-4-fluorophenyl)-1-(1H-indazol-5-yl)but-1-en-1-yl)styryl)-1,2,4-oxadiazol-5(4H)-one], in test [1], the “MCF7 Viability Assay Max Response” value is given as “++ (++ = a single % value ≧ 40%)” and the IC50 is no more than 100 nM. In addition, in test [2], the Emax was no less than 40% and the DC50 is no more than 100 nM.

Consider `CC/C(=C(/c1ccc(/C=C/C(=O)O)cc1)c1ccc2[nH]ncc2c1)c1ccccn1` [Compound 25, (E)-3-(4-((E)-1-(1H-Indazol-5-yl)-2-(pyridin-2-yl)but-1-en-1-yl)phenyl)acrylic acid], for which, in test [1], the “MCF7 Viability Assay Max Response” value is on record as “++ (++ = a single % value ≧ 40%)” and the IC50 is greater than 100 nM. In test [2], the Emax was no less than 40% and the DC50 is greater than 100 nM.

`CC/C(=C(/c1ccc(/C=C/C(=O)O)cc1)c1ccc2ocnc2c1)c1ccccc1` [Compound 146]: in test [1], the “MCF7 Viability Assay Max Response” value was “++ (++ = a single % value ≧ 40%)” and the IC50 was greater than 100 nM. Besides, in test [2], the Emax is no less than 40% and the DC50 is greater than 100 nM.

As to `CC/C(=C(/c1ccc(/C=C/c2noc(=S)[nH]2)cc1)c1ccc2[nH]ncc2c1)c1ccccc1` [Compound 440, 3-((E)-4-((E)-1-(1H-Indazol-5-yl)-2-phenylbut-1-en-1-yl)styryl)-1,2,4-oxadiazole-5(4H)-thione], in test [1], the “MCF7 Viability Assay Max Response” value is reported as “+ (+ = a single % value < 40%)” and the IC50 is no more than 100 nM. Moreover, in test [2], the Emax was no less than 40% and the DC50 is no more than 100 nM.

As to `CC/C(=C(/c1ccc(/C=C/C(=O)O)cc1)c1ccc2[nH]ncc2c1)c1ccc2c(c1)N(C)C(=O)CO2` [Compound 262, (E)-3-(4-((E)-1-(1H-Indazol-5-yl)-2-(4-methyl-3-oxo-3,4-dihydro-2H-benzo[b][1,4]oxazin-6-yl)but-1-en-1-yl)phenyl)acrylic acid], in test [1], the “MCF7 Viability Assay Max Response” value is on record as “++ (++ = a single % value ≧ 40%)” and the IC50 is greater than 100 nM. For the same molecule, in test [2], the Emax is no less than 40% and the DC50 is greater than 100 nM.

On to `O=C(O)/C=C/c1ccc(/C(=C(/CCF)c2ccncc2Cl)c2ccc3[nH]ncc3c2)cc1` [Compound 230, (E)-3-(4-((E)-2-(3-Chloropyridin-4-yl)-4-fluoro-1-(1H-indazol-5-yl)but-1-en-1-yl)phenyl)acrylic acid], for which, in test [1], the “MCF7 Viability Assay Max Response” value is “++ (++ = a single % value ≧ 40%)” and the IC50 is no more than 100 nM. In test [2], the Emax is no less than 40% and the DC50 was no more than 100 nM.

`O=C(O)/C=C/c1ccc(/C(=C(\c2ccccc2)C2CC2)c2cccc3[nH]ncc23)cc1` [Compound 70, (E)-3-(4-((E)-2-Cyclopropyl-1-(1H-indazol-4-yl)-2-phenylvinyl)phenyl)acrylic acid]: in test [1], the “MCF7 Viability Assay Max Response” value was “++ (++ = a single % value ≧ 40%)” and the IC50 was no more than 100 nM. In test [2], the Emax was no less than 40% and the DC50 is no more than 100 nM.

For `CC/C(=C(/c1ccc(/C=C/C(=O)O)cc1)c1coc2ccccc12)c1ccc(F)cc1Cl` [Compound 170, (E)-3-(4-((E)-1-(Benzofuran-3-yl)-2-(2-chloro-4-fluorophenyl)but-1-en-1-yl)phenyl)acrylic acid], in test [1], the “MCF7 Viability Assay Max Response” value is reported as “++ (++ = a single % value ≧ 40%)” and the IC50 is no more than 100 nM. Besides, in test [2], the Emax is no less than 40% and the DC50 was no more than 100 nM.

Turning to `CC/C(=C(/c1ccc(/C=C/C(=O)O)cc1)c1ccc2ccccc2c1)c1ccccc1` [Compound 123, (E)-3-(4-((E)-1-(Naphthalen-2-yl)-2-phenylbut-1-en-1-yl)phenyl)acrylic acid], in test [1], the “MCF7 Viability Assay Max Response” value is recorded as “++ (++ = a single % value ≧ 40%)” and the IC50 is greater than 100 nM. Further, in test [2], the Emax was no less than 40% and the DC50 is no more than 100 nM.
